In patent US9938269B2, “Inhibitor compounds of phosphodiesterase type 10A” (ABBVIE INC., priority 2011, dated 2018) one finds IC50 data, which are given here for 35 molecules.

Where a name gives a salt, the structure may show the parent alone.

In the test the target is T1, PDE10A (human) (Homo sapiens, UniProt Q9Y233).
T1 construct: purchased BPS Bioscience
T1 sequence (Q9Y233 whole entry): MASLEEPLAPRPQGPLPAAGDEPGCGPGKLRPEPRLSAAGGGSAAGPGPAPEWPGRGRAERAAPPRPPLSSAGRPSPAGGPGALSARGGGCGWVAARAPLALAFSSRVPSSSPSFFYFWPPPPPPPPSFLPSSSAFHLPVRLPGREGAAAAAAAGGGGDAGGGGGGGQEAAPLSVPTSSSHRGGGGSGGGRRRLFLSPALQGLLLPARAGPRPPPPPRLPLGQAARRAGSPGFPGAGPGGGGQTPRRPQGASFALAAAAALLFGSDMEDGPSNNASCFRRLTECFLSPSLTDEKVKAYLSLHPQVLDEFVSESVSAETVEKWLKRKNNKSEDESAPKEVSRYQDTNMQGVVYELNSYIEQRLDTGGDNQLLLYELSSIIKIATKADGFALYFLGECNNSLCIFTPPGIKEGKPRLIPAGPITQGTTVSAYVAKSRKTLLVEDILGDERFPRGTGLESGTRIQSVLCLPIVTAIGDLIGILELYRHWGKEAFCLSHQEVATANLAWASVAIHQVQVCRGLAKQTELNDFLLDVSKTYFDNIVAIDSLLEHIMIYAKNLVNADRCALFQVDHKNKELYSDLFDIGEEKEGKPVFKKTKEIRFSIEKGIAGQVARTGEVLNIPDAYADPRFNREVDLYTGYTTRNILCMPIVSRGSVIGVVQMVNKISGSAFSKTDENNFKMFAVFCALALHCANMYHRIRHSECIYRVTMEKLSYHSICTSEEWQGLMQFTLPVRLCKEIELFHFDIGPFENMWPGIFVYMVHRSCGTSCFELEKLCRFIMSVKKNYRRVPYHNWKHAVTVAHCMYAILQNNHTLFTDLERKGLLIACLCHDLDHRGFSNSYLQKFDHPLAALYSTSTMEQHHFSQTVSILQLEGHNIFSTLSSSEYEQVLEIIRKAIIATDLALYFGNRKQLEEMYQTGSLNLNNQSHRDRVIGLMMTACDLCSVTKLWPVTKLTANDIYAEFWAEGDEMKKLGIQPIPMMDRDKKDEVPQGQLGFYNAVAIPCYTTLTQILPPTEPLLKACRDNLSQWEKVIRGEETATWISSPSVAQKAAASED
The test is described as follows: Measurement of PDE activity (HTRF cAMP kit), human PDE10A. It counts as biochemical. To be noted: PDE enzymatic reaction, substrate 20 nM for PDE10, 60 minutes at 29 C. The protocol:
The recombinant PDE proteins are used in in vitro enzymatic reaction for measurement of PDE activity. These recombinant proteins, including PDE10A (human, rat and mouse PDE10) and isoforms of PDEs 1, 3, 4, and 5, were purchased from commercial vendor BPS Bioscience. The enzymatic activity of PDEs was determined by cAMP measurement kit from CisBio (IBA) using HTRF technology.
The PDE enzymatic reaction was carried out in assay buffer (20 mM Tris-HCl pH7.5, 10 mM MgCl2, 0.1% bovine serum albumin) containing enzyme and substrate. The PDE enzymes concentration ranged from 10 pM-250 pM, depending on each enzyme's specific activity. The substrate cyclic nucleotide (cAMP or cGMP) concentration used in the assay was 20 nM for PDE10, and 100 nM for other PDEs. The inhibitory effect of compound was determined by incubating various concentration of inhibitor in the enzymatic assay. Typically, compound was serial diluted in DMSO then further diluted in assay buffer. Next, the compound at varying concentration was mixed with PDE enzyme. The reaction was initiated by addition of cyclic nucleotide substrate, and incubated for 60 minutes at 29 C. The reaction was stopped by addition of lysis buffer from assay kit. The cAMP-d2 and anti-cAMP cryptate in the lysis buffer detected the level of cAMP left from the PDE hydrolysis reaction. The PDE activity is reversely correlated with the amount of cAMP left in the reaction and can be converted to the percent activity of an uninhibited control (100%). Thus, IC50 value of inhibitor can be obtained by plotting inhibitor concentration against PDE activity at that concentration.
Background: In TR-FRET formats the signal depends on donor and acceptor labels being close together.
On to `O=C1c2c(cccc2-c2nccs2)CN1CCc1ccc2ccccc2n1` [Example 82, 2-(2-Quinolin-2-yl-ethyl)-7-thiazol-2-yl-2,3-dihydro-isoindol-1-one], for which the IC50 was in the range of 0.2 to 0.5 µM.

In turn, `O=C1c2c(cccc2-c2ccccc2F)CN1CCc1ccc2ccccc2n1` [Example 29, 7-(2-Fluoro-phenyl)-2-(2-quinolin-2-yl-ethyl)-2,3-dihydro-isoindol-1-one] displayed an IC50 of 0.1 to 0.2 µM.

In turn, `CSCOc1ccc(-c2ccncc2)c2c1CN(CCc1ccc3ccccc3n1)C2=O` [Example 267, 4-Methylsulfanylmethoxy-7-pyridin-4-yl-2-(2-quinolin-2-yl-ethyl)-2,3-dihydro-isoindol-1-one] displayed an IC50 of less than 0.1 µM.

`Cn1nccc1-c1cccc2c1C(=O)N(CCc1ccc3ccccc3n1)C2` [Example 74, 7-(2-Methyl-2H-pyrazol-3-yl)-2-(2-quinolin-2-yl-ethyl)-2,3-dihydro-isoindol-1-one] returned an IC50 of less than 0.1 µM.

The molecule `COc1cnccc1-c1cccc2c1C(=O)N(CCc1ccc3ccccc3n1)C2` [Example 169, 7-(3-Methoxy-pyridin-4-yl)-2-(2-quinolin-2-yl-ethyl)-2,3-dihydro-isoindol-1-one trifluoroacetate] had an IC50 of 0.1 to 0.2 µM.

The molecule `Cc1ccsc1-c1ccnc2c1C(=O)N(CCc1ccc3ccccc3n1)C2` [Example 336, 4-(3-Methyl-thiophen-2-yl)-6-(2-quinolin-2-yl-ethyl)-6,7-dihydro-pyrrolo[3,4-b]pyridin-5-one] returned an IC50 of 0.1 to 0.2 µM.

As to `O=C1c2c(cccc2-c2ccc(F)cn2)CN1CCc1ccc2ccccc2n1` [Example 88, 7-(5-Fluoro-pyridin-2-yl)-2-(2-quinolin-2-yl-ethyl)-2,3-dihydro-isoindol-1-one], the IC50 was in the range of 0.2 to 0.5 µM.

Molecule `O=C1c2c(N3CCC(F)(F)CC3)ccnc2CN1CCc1nc2ccccc2s1` [compound 527, 6-[2-(1,3-Benzothiazol-2-yl)ethyl]-4-(4,4-difluoro-1-piperidyl)-7H-pyrrolo[3,4-b]pyridin-5-one trifluoroacetate] showed a half-inhibitory concentration (IC50) of less than 0.1 µM.

The molecule `O=C1c2c(cccc2-c2ccc3occc3c2)CN1CCc1ccc2ccccc2n1` [Example 72, 7-Benzofuran-5-yl-2-(2-quinolin-2-yl-ethyl)-2,3-dihydro-isoindol-1-one] displayed an IC50 of 0.2 to 0.5 µM.

For `O=C1c2c(-c3ccncc3)ccc(OC(F)F)c2CN1CCc1ccc2ccccc2n1` [Example 268, 4-Difluoromethoxy-7-pyridin-4-yl-2-(2-quinolin-2-yl-ethyl)-2,3-dihydro-isoindol-1-one], the IC50 is less than 0.1 µM.

Molecule `O=C1c2c(cccc2-c2ccco2)CN1CCc1ccc2ccccc2n1` [Example 31, 7-Furan-2-yl-2-(2-quinolin-2-yl-ethyl)-2,3-dihydro-isoindol-1-one] displayed an IC50 of 0.2 to 0.5 µM.

Take `O=C1c2c(-c3ccncc3)ccc(F)c2CN1CCc1ccc2ccccc2n1` [Example 16, 4-Fluoro-7-pyridin-4-yl-2-(2-quinolin-2-yl-ethyl)-2,3-dihydro-isoindol-1-one]: the IC50 is less than 0.1 µM.

As to `O=C1c2c(cccc2N2CCCC3NCCCC32)CN1CCc1ccc2ccccc2n1` (centres unmarked) [Example 279, 7-(Octahydro-[1,5]naphthyridin-1-yl)-2-(2-quinolin-2-yl-ethyl)-2,3-dihydro-isoindol-1-one trifluoroacetate], the IC50 was 0.2 to 0.5 µM.

For `CNCOc1ccc(-c2ccncc2)c2c1CN(CCc1ccc3ccccc3n1)C2=O` [Example 276, 4-Methylaminomethoxy-7-pyridin-4-yl-2-(2-quinolin-2-yl-ethyl)-2,3-dihydro-isoindol-1-one], the IC50 is less than 0.1 µM.

Molecule `COc1cncc(-c2cccc3c2CN(CCc2ccc4ccccc4n2)C3=O)n1` [Example 356, 4-(6-Methoxy-pyrazin-2-yl)-2-(2-quinolin-2-yl-ethyl)-2,3-dihydro-isoindol-1-one] had an IC50 of 0.2 to 0.5 µM.

`Cc1ccc2nc(CCN3Cc4nccc(-c5ccncc5)c4C3=O)ccc2c1` [compound 406, 6-[2-(6-Methyl-2-quinolyl)ethyl]-4-(4-pyridyl)-7H-pyrrolo[3,4-b]pyridin-5-one] showed an IC50 of less than 0.1 µM.

As to `O=C1c2c(cccc2NCc2ccncc2)CN1CCc1ccc2ccccc2n1` [Example 125, 7-[(Pyridin-4-ylmethyl)-amino]-2-(2-quinolin-2-yl-ethyl)-2,3-dihydro-isoindol-1-one], the IC50 was 0.2 to 0.5 µM.

Consider `CC(C)n1c(CCN2Cc3cccc(-c4ccncc4)c3C2=O)nc2ccccc21` [Example 303, 2-[2-(1-Isopropyl-1H-benzoimidazol-2-yl)-ethyl]-7-pyridin-4-yl-2,3-dihydro-isoindol-1-one trifluoroacetate], for which the IC50 lay within 0.1 to 0.2 µM.

As to `Cn1c(CCN2Cc3cccc(-c4ccncc4)c3C2=O)nc2cc(F)ccc21` [Example 221, 2-[2-(5-Fluoro-1-methyl-1H-benzoimidazol-2-yl)-ethyl]-7-pyridin-4-yl-2,3-dihydro-isoindol-1-one trifluoroacetate], the IC50 is less than 0.1 µM.

`COc1ccc(-c2ccnc3c2CN(CCc2ccc4ccccc4n2)C3=O)cc1` [compound 458, 4-(4-Methoxy-phenyl)-6-(2-quinolin-2-yl-ethyl)-5,6-dihydro-pyrrolo[3,4-b]pyridin-7-one trifluoroacetate] gave an IC50 of less than 0.1 µM.

`Cn1c2cccc(-c3ccncc3)c2c(=O)n1CCc1ccc2ccccc2n1` [Example 17, 1-Methyl-4-(pyridin-4-yl)-2-(2-(quinolin-2-yl)ethyl)-1,2-dihydroindazol-3-one]: the IC50 is less than 0.1 µM.

`O=C1c2c(cccc2-c2cc(F)ccc2F)CN1CCc1ccc2ccccc2n1` [Example 51, 7-(2,5-Difluoro-phenyl)-2-(2-quinolin-2-yl-ethyl)-2,3-dihydro-isoindol-1-one] came in with an IC50 of 0.2 to 0.5 µM.

`O=C1c2c(cccc2N2CCC(F)(F)CC2)CN1CCc1ccc2ccccc2n1` [Example 143, 7-(4,4-Difluoro-piperidin-1-yl)-2-(2-quinolin-2-yl-ethyl)-2,3-dihydro-isoindol-1-one] displayed an IC50 of less than 0.1 µM.

In turn, `COc1ccc(-c2ccc(F)c3c2C(=O)N(CCc2ccc4ccccc4n2)C3)cc1` [compound 441, 4-Fluoro-7-(4-methoxyphenyl)-2-[2-(2-quinolyl)ethyl]isoindolin-1-one] came in with an IC50 of 0.1 to 0.2 µM.

For the molecule `CCc1csc(CCN2Cc3nccc(-c4ccncc4)c3C2=O)n1` [compound 407, 6-[2-(4-Ethylthiazol-2-yl)ethyl]-4-(4-pyridyl)-7H-pyrrolo[3,4-b]pyridin-5-one], the IC50 was less than 0.1 µM.

Turning to `Cc1cnccc1-c1ccnc2c1C(=O)N(CCc1ccc3ccccc3n1)C2` [Example 322, 4-(3-Methyl-pyridin-4-yl)-6-(2-quinolin-2-yl-ethyl)-6,7-dihydro-pyrrolo[3,4-b]pyridin-5-one], the IC50 was less than 0.1 µM.

For `O=C1c2cccc(-c3cscn3)c2CN1CCc1ccc2ccccc2n1` [Example 355, 2-(2-Quinolin-2-yl-ethyl)-4-thiazol-4-yl-2,3-dihydro-isoindol-1-one], the IC50 was less than 0.1 µM.

`CCCn1c(CCN2Cc3cccc(N4CCOCC4)c3C2=O)nc2ccccc21` [Example 305, 7-Morpholin-4-yl-2-[2-(1-propyl-1H-benzoimidazol-2-yl)-ethyl]-2,3-dihydro-isoindol-1-one trifluoroacetate] came in with an IC50 of 0.2 to 0.5 µM.

For the molecule `O=C1c2c(cccc2-c2ccncc2)CN1CCc1ccc2ccccc2n1` [Example 5, 7-Pyridin-4-yl-2-(2-quinolin-2-yl-ethyl)-2,3-dihydro-isoindol-1-one], the IC50 was less than 0.1 µM.

As to `O=C1c2c(cccc2-c2ccnc(Cl)c2)CN1CCc1ccc2ccccc2n1` [Example 171, 7-(2-Chloro-pyridin-4-yl)-2-(2-quinolin-2-yl-ethyl)-2,3-dihydro-isoindol-1-one trifluoroacetate], the IC50 was in the range of 0.1 to 0.2 µM.

The molecule `CCc1ccc(CCN2Cc3nccc(N4CCOCC4)c3C2=O)nc1` [compound 499, 6-[2-(5-Ethyl-2-pyridyl)ethyl]-4-morpholino-7H-pyrrolo[3,4-b]pyridin-5-one trifluoroacetate] displayed an IC50 of less than 0.1 µM.

As for `COc1ccc(-c2ccc(OC)c3c2C(=O)N(CCc2ccc4ccccc4n2)C3)cc1` [Example 186, 4-Methoxy-7-(4-methoxy-phenyl)-2-(2-quinolin-2-yl-ethyl)-2,3-dihydro-isoindol-1-one], the IC50 was 0.1 to 0.2 µM.

`O=C1c2c(-c3ccsc3)ccnc2CN1CCc1cn2ccccc2n1` [compound 523, 6-(2-Imidazo[1,2-a]pyridin-2-ylethyl)-4-(3-thienyl)-7H-pyrrolo[3,4-b]pyridin-5-one] returned an IC50 of less than 0.1 µM.

With `COc1ccc(-c2ccc(F)cc2)c2c1CN(CCc1ccc3ccccc3n1)C2=O` [Example 187, 7-(4-Fluoro-phenyl)-4-methoxy-2-(2-quinolin-2-yl-ethyl)-2,3-dihydro-isoindol-1-one], the IC50 was less than 0.1 µM.

Molecule `O=C1c2c(cccc2-c2ccccc2)CN1CCc1ccc2ccccc2n1` [Example 21, 7-Phenyl-2-(2-quinolin-2-yl-ethyl)-2,3-dihydro-isoindol-1-one] had an IC50 of 0.1 to 0.2 µM.

One may read the IC50 as the concentration needed to halve the response being measured. High values mean weaker potency in that assay, low ones greater potency in that assay.
